Laboratory results as given in patent US20120122820A1, “PRODRUGS AND THE USE THEREOF” (Bayer Schering Pharma Aktiengesellschaft, priority 2007, published 2012).
Values after ≈ are worked out from the molar mass of the structure shown. Where a name gives a salt, the structure may show the parent alone.

Assays:
[1] = Determination of the solubility (24 h shaking at room temperature, ultracentrifugation, HPLC); assay type: physicochemical; conditions: thermodynamic from solid
Description: The test substance is suspended in water or dilute hydrochloric acid (pH 4) [Examples 1-21] or in 5% strength aqueous dextrose solution [Examples 22-40]. This suspension is shaken at room temperature for 24 h. After ultracentrifugation at 224 000 g for 30 min, the supernatant is diluted with DMSO and analyzed by HPLC. A two-point calibration plot of the test compound in DMSO is used for quantification.
Agilent 1100 with DAD (G1315A), quat. pump (G1311A), autosampler CTC HTS PAL, degasser (G1322A) and column thermostat (G1316A); column: Phenomenex Gemini C18, 5 μm, 50 mm×2 mm; temperature: 40° C.; eluent A: water/phosphoric acid pH 2, eluent B: acetonitrile; flow rate: 0.7 ml/min; gradient: 0-0.5 min 85% A, 15% B; ramp 0.5-3 min 10% A, 90% B; 3-3.5 min 10% A, 90% B; ramp 3.5-4 min 85% A, 15% B; 4-5 min 85% A, 15% B.
Agilent 1100 with DAD (G1315A), quat. pump (G1311A), autosampler CTC HTS PAL, degasser (G1322A) and column thermostat (G1316A); column: VDSoptilab Kromasil 100 C18, 3.5 μm, 60 mm×2.1 mm; temperature: 30° C.; eluent A: water+5 ml of perchloric acid/liter, eluent B: acetonitrile; flow rate: 0.75 ml/min; gradient: 0-0.5 min 98% A, 2% B; ramp 0.5-4.5 min 10% A, 90% B; 4.5-6 min 10% A, 90% B; ramp 6.5-6.7 min 98% A, 2% B; 6.7-7.5 min 98% A, 2% B.

[2] = Stability in buffer at various pH values; assay type: physicochemical
Description: 0.3 mg of the test substance is weighed into a 2 ml HPLC vial and 0.5 ml of acetonitrile or acetonitrile/DMSO (9:1) is added. The substance is dissolved by putting the sample vessel in an ultrasonic bath for about 10 seconds. Then 0.5 ml of the respective (buffer) solution is added, and the sample is again treated in the ultrasonic bath.
• pH 4: 1 liter of Millipore water is adjusted to pH 4.0 with 1 N hydrochloric acid; • pH 5: 0.096 mol of citric acid and 0.2 mol of sodium hydroxide ad 1 liter of water; • pH 7.4: 90.0 g of sodium chloride, 13.61 g of potassium dihydrogen phosphate and 83.35 g of 1 N sodium hydroxide solution are made up to 1 liter with water; this solution is then further diluted 1:10 with Millipore water. • pH 8: 0.013 mol of borax and 0.021 mol of hydrochloric acid ad 1 liter of water.
5 μl portions of the sample solution are analyzed by HPLC for their content of unchanged test substance, and of parent substance (A) produced, every hour over a period of 24 hours at 37° C. The percentage areas of the appropriate peaks are used for quantification.
HPLC method for Examples 1-21:
Agilent 1100 with DAD (G1314A), binary pump (G1312A), autosampler (G1329A), column oven (G1316A), thermostat (G1330A); column: Kromasil 100 C18, 60 mm×2.1 mm, 3.5 μm; column temperature: 30° C.; eluent A: water+5 ml of perchloric acid/liter, eluent B: acetonitrile; gradient: 0-1.0 min 98% A, 2% B; 1.0-9.0 min 2% A, 98% B; 9.0-13.0 min 2% A, 98% B; 13.0-13.5 min 98% A, 2% B; 13.5-15.0 min 98% A, 2% B; flow rate: 0.75 ml/min; UV detection: 210 nm.
HPLC method for Examples 22-40:
The ratios of the peak areas (F) at the respective time points in relation to the peak areas at the starting time are shown in Table 3 for representative exemplary embodiments: […]

[3] = aqueous buffer, dilute hydrochloric acid (pH 4)
[4] = saline or isotonic, 5% strength aqueous dextrose solution

Row | SMILES | solubility at 24 h [1, 3] [µg/mL] | % test substance after 4 h [F(t = 4 h) × 100/F(t = 0 h)] ([2]; pH 4, 37° C.) [%] | % test substance after 24 h [F(t = 24 h) × 100/F(t = 0 h)] ([2]; pH 4, 37° C.) [%] | further results
1 | N#Cc1c(N)nc(SCc2csc(-c3ccc(Cl)cc3)n2)c(C#N)c1-c1ccc(OCCOC(=O)CN)cc1 [Example 6, 2-{4-[2-Amino-6-({[2-(4-chlorophenyl)-1,3-thiazol-4-yl]methyl}thio)-3,5-dicyanopyridin-4-yl]-phenoxy}ethyl glycinate dihydrochloride] | 90 | – | – | –
2 | N#Cc1c(N)nc(SCc2csc(-c3ccc(Cl)cc3)n2)c(C#N)c1-c1ccc(OCCOC(=O)[C@@H]2CCCN2)cc1 [Example 9, 2-{4-[2-Amino-6-({[2-(4-chlorophenyl)-1,3-thiazol-4-yl]methyl}thio)-3,5-dicyanopyridin-4-yl]-phenoxy}ethyl L-prolinate hydrochloride] | 50 | – | – | –
3 | Cc1ccc(S(=O)(=O)[O-])cc1.N#Cc1c(N)nc(SCc2csc(-c3ccc(Cl)cc3)n2)c(C#N)c1-c1ccc(OCCOC(=O)[C@@H]2CCC[NH2+]2)cc1 [Example 10, 2-{4-[2-Amino-6-({[2-(4-chlorophenyl)-1,3-thiazol-4-yl]methyl}thio)-3,5-dicyanopyridin-4-yl]-phenoxy}ethyl L-prolinate p-toluenesulfonic acid salt] | 8 | – | – | –
4 | N#Cc1c(N)nc(SCc2csc(-c3ccc(Cl)cc3)n2)c(C#N)c1-c1ccc(OCCOC(=O)[C@@H](N)CO)cc1 [Example 11, 2-{4-[2-Amino-6-({[2-(4-chlorophenyl)-1,3-thiazol-4-yl]methyl}thio)-3,5-dicyanopyridin-4-yl]-phenoxy}ethyl L-serinate hydrochloride] | 70 | – | – | –
5 | N#Cc1c(N)nc(SCc2csc(-c3ccc(Cl)cc3)n2)c(C#N)c1-c1ccc(OCCOC(=O)[C@@H](N)CCCCN)cc1 [Example 14, 2-{4-[2-Amino-6-({[2-(4-chlorophenyl)-1,3-thiazol-4-yl]methyl}thio)-3,5-dicyanopyridin-4-yl]-phenoxy}ethyl L-lysinate dihydrochloride] | – | 100 | 100 | % test substance after 4 h [F(t = 4 h) × 100/F(t = 0 h)] ([2]; pH 8, 37° C.): 96%; % test substance after 24 h [F(t = 24 h) × 100/F(t = 0 h)] ([2]; pH 8, 37° C.): 76%
6 | N#Cc1c(N)nc(SCc2csc(-c3ccc(Cl)cc3)n2)c(C#N)c1-c1ccc(OCCOC(=O)[C@@H](N)Cc2ccccc2)cc1 [Example 16, 2-{4-[2-Amino-6-({[2-(4-chlorophenyl)-1,3-thiazol-4-yl]methyl}thio)-3,5-dicyanopyridin-4-yl]-phenoxy}ethyl L-phenylalaninate hydrochloride] | – | 100 | 100 | % test substance after 4 h [F(t = 4 h) × 100/F(t = 0 h)] ([2]; pH 8, 37° C.): 100%; % test substance after 24 h [F(t = 24 h) × 100/F(t = 0 h)] ([2]; pH 8, 37° C.): 100%
7 | CS(=O)(=O)O.N#Cc1c(N)nc(SCc2csc(-c3ccc(Cl)cc3)n2)c(C#N)c1-c1ccc(OCCOC(=O)[C@@H](N)Cc2ccccc2)cc1 [Example 18, 2-{4-[2-Amino-6-({[2-(4-chlorophenyl)-1,3-thiazol-4-yl]methyl}thio)-3,5-dicyanopyridin-4-yl]-phenoxy}ethyl L-phenylalaninate methanesulfonic acid salt] | 60 | – | – | –
8 | CC(C)[C@H](N)C(=O)OCCOc1ccc(-c2c(C#N)c(N)nc(SCc3csc(-c4ccc(Cl)cc4)n3)c2C#N)cc1 [Example 23, 2-{4-[2-Amino-6-({[2-(4-chlorophenyl)-1,3-thiazol-4-yl]methyl}thio)-3,5-dicyanopyridin-4-yl]-phenoxy}ethyl L-valinate dihydrochloride] | – | 100 | 99 | % test substance after 4 h [F(t = 4 h) × 100/F(t = 0 h)] ([2]; pH 7.4, 37° C.): 100%; % test substance after 24 h [F(t = 24 h) × 100/F(t = 0 h)] ([2]; pH 7.4, 37° C.): 96%
9 | N#Cc1c(N)nc(SCc2csc(-c3ccc(Cl)cc3)n2)c(C#N)c1-c1ccc(OCCOC(=O)[C@@H](N)CCN)cc1 [Example 24, 2-{4-[2-Amino-6-({[2-(4-chlorophenyl)-1,3-thiazol-4-yl]methyl}thio)-3,5-dicyanopyridin-4-yl]-phenoxy}ethyl (2S)-2,4-diaminobutanoate dihydrochloride] | – | 100 | 99 | % test substance after 4 h [F(t = 4 h) × 100/F(t = 0 h)] ([2]; pH 5, 37° C.): 96%; % test substance after 24 h [F(t = 24 h) × 100/F(t = 0 h)] ([2]; pH 5, 37° C.): 74%; solubility at 24 h [1, 4]: > 500 µg/mL
10 | N#Cc1c(N)nc(SCc2csc(-c3ccc(Cl)cc3)n2)c(C#N)c1-c1ccc(OCCOC(=O)CCC(=O)O)cc1 [Example 28, 2-Hydroxy-N,N,N-trimethylethanaminium 4-(2-{4-[2-amino-6-({[2-(4-chlorophenyl)-1,3-thiazol-4-yl]methyl}thio)-3,5-dicyanopyridin-4-yl]phenoxy}ethoxy) 4-oxobutanoate] | – | 100 | 100 | % test substance after 4 h [F(t = 4 h) × 100/F(t = 0 h)] ([2]; pH 7.4, 37° C.): 100%; % test substance after 24 h [F(t = 24 h) × 100/F(t = 0 h)] ([2]; pH 7.4, 37° C.): 100%
11 | N#Cc1c(N)nc(SCc2csc(-c3ccc(Cl)cc3)n2)c(C#N)c1-c1ccc(OCCOC(=O)/C=C\C(=O)O)cc1 [Example 31, 2-Hydroxy-N,N,N-trimethylethanaminium (2Z)-4-(2-{4-[2-amino-6-({[2-(4-chlorophenyl)-1,3-thiazol-4-yl]methyl}thio)-3,5-dicyanopyridin-4-yl]phenoxy}ethoxy)-4-oxobut-2-enoate] | – | – | – | solubility at 24 h [1, 4]: 4 µg/mL (≈ 6.47 µM)
12 | N#Cc1c(N)nc(SCc2csc(-c3ccc(Cl)cc3)n2)c(C#N)c1-c1ccc(OCCOC(=O)[C@@H](N)Cc2c[nH]cn2)cc1 [Example 33, 2-{4-[2-Amino-6-({[2-(4-chlorophenyl)-1,3-thiazol-4-yl]methyl}thio)-3,5-dicyanopyridin-4-yl]-phenoxy}ethyl L-histidinate dihydrochloride] | – | – | – | solubility at 24 h [1, 4]: 195 µg/mL
13 | CN(C)CC(=O)Nc1nc(SCc2csc(-c3ccc(Cl)cc3)n2)c(C#N)c(-c2ccc(OCCOC(=O)CN(C)C)cc2)c1C#N [Example 34, 2-(4-{2-({[2-(4-Chlorophenyl)-1,3-thiazol-4-yl]methyl}thio)-3,5-dicyano-6-[(N,N-dimethylglycyl)-amino]pyridin-4-yl}phenoxy)ethyl N,N-dimethylglycinate] | – | 100 | 97 | % test substance after 4 h [F(t = 4 h) × 100/F(t = 0 h)] ([2]; pH 7.4, 37° C.): 100%; % test substance after 24 h [F(t = 24 h) × 100/F(t = 0 h)] ([2]; pH 7.4, 37° C.): 97%
14 | CN(C)CC(=O)Nc1nc(SCc2csc(-c3ccc(Cl)cc3)n2)c(C#N)c(-c2ccc(OCCOC(=O)CN(C)C)cc2)c1C#N [Example 35, 2-(4-{2-({[2-(4-Chlorophenyl)-1,3-thiazol-4-yl]methyl}thio)-3,5-dicyano-6-[(N,N-dimethylglycyl)-amino]pyridin-4-yl}phenoxy)ethyl N,N-dimethylglycinate dihydrochloride] | – | – | – | % test substance after 24 h [F(t = 24 h) × 100/F(t = 0 h)] ([2]; pH 4, 37° C., dihydrochloride): 100%; % test substance after 24 h [F(t = 24 h) × 100/F(t = 0 h)] ([2]; pH 7.4, 37° C., dihydrochloride): 98%
